The values that follow come from patent US20220193240A1, “TRIGGERABLE HYDROGEL COMPOSITIONS AND RELATED METHODS” (Massachusetts Institute of Technology, priority 2016, published 2022).

The conditions of series [1]: pH 7.4.
Procedure: Permeability measurement. The measurement of permeability of TTHs was carried out on a Franz diffusion cell using a TTH membrane (thickness, 3 mm). […] At each time point, 0.4 mL was sampled from the acceptor compartment and 0.4 mL fresh PBS was supplemented through the sampling port of the cell.
Series [2] can be described thus: In vivo pharmacokinetics of lumefantrine with model fit. Also noted: species or system Yorkshire pig. On the procedure:
In vivo studies. All animal experiments were performed in accordance with protocols approved by the Committee on Animal Care at MIT. A large animal model, 45-55 kg Yorkshire pigs, was chosen as its gastric anatomy similar to humans and is widely used in evaluating devices in the GI space. Pigs were sedated with Telazol (tiletamine/zolazepam) 5 mg kg−1, xylazine 2 mg kg−1, and atropine 0.05 mg kg−1, and/or isoflurane (1˜3% inhaled), and an endoscopic overtube (US Endoscopy) was placed in the esophagus under endoscopic visual guidance during esophageal intubation. To evaluate the TTH for its ability to be triggered to dissolve into solution with biocompatible agents, the retrievable TTH strips and methyl blue-labeled large TTH sheets were administered via the overtube into the stomach. PBS (0.5 L) containing EDTA (40 mM), GSH (20 mM), and NaHCO3 (60 mM) was administered via the overtube after the gastric placement of the TTH samples. Intra-gastric endoscopy videography was used for image capture of the dissolution of the TTH sheets. The TTH strips were retrieved endoscopically after 1 h in the gastric cavity. Pigs that were not administered EDTA/GSH and therefore the strips and sheets were only exposed to gastric fluid were used as control experiments. To assess TTHs for the ability to achieve gastric retention, radiopaque barium sulfate-labeled capsule-like TTHs were administered via the overtube into the gastric cavity (one TTH device per pig). Radiographs were performed every 48-72 h to monitor the integrity and transit of the devices as well as any radiographic evidence of bowel obstruction or perforation. […] During the evaluation of the TTH systems for gastric residence and drug delivery the animals were monitored twice daily for any signs of abnormal feeding and stooling patterns. Additionally the animals were monitored clinically for any evidence of gastrointestinal obstruction as well as radiographically every 48-72 hours for evidence of obstruction and/or perforation. […]

On to `C[S+](C)[O-]` [dimethyl sulfoxide], for which the “permeability through the TTH” value in series [1] is given as 0.082 mL h·cm−2.
For `CCCCN(CCCC)CC(O)c1cc(Cl)cc2c1-c1ccc(Cl)cc1/C2=C/c1ccc(Cl)cc1` (stereo not shown) [free lumefantrine, lumefantrine], in series [2] (after a single administration), the clearance from blood entry is on record as “rapidly cleared from blood”. For the same molecule, in series [2] (first order model fit), the absorption rate constant turned out to be 1.17 day⁻¹. In addition, in series [2] (free drug, model fit, estimated), the elimination rate constant is 1.17 day⁻¹.
